Reference: patent US9115117B2, “Substituted piperidine compounds and their use as orexin receptor modulators” (JANSSEN PHARMACEUTICA NV, priority 2013, dated 2015)
Counter-ions that a name gives are not always drawn. Each block holds one molecule with its values, some of them ahead of it.

How the values were obtained:
rat orexin 1 receptor = rat orexin 1 receptor (Rattus norvegicus, UniProt P56718); test: Rat orexin 1 receptor radioligand binding; details: HEK293 cells stably expressing rat orexin 1 receptor; apparent Ki; read-out: rOX1 Ki
Description: After centrifugation (2K×G, 5 min at 4° C.), the supernatant was aspirated and the pellets frozen and stored at −80° C. […] Each cell pellet from a 15 cm plate was resuspended in 10 mL, stored on ice, and homogenized for 45 sec prior to addition to the reactions. Competition binding experiments in 96 well polypropylene plates were performed using [^3H]-(1-(5-(2-fluoro-phenyl)-2-methyl-thiazol-4-yl)-1-((S)-2-(5-phenyl-(1,3,4)oxadiazol-2-ylmethyl)-pyrrolidin-1-yl)-methanone) (Moraveck Corporation, specific activity=35.3 Ci/mmol), diluted to a 10 nM concentration in PBS (4 nM final). […] The final concentration of DMSO in the reactions is equal to or less than 0.1%. Total and nonspecific binding was determined in the absence and presence of 10 μM almorexant. The total volume of each reaction is 200 μL (20 μL of diluted compounds, 80 μL of [3H]-(1-(5-(2-fluoro-phenyl)-2-methyl-thiazol-4-yl)-1-((S)-2-(5-phenyl-(1,3,4)oxadiazol-2-ylmethyl)-pyrrolidin-1-yl)-methanone) diluted in PBS and 100 μL of the cell suspension). […] The plates were washed 3 times by aspirating 30 ml PBS through the plates. Plates were dried in 55° C. oven for 60 min, scintillation fluid was added, and the radioactivity was counted on a Topcount (Packard).

human orexin 1 receptor = human orexin 1 receptor (Homo sapiens, UniProt O43613); test: Human orexin 1 receptor radioligand binding; details: CHO cells stably expressing human orexin 1 receptor; apparent Ki; read-out: hOX1 Ki
Description: The in vitro affinity of the compounds of the invention for the rat/human orexin 1 and human orexin 2 receptors was determined by competitive radioligand binding using [^3H](1-(5-(2-fluoro-phenyl)-2-methyl-thiazol-4-yl)-1-((S)-2-(5-phenyl-(1,3,4)oxadiazol-2-ylmethyl)-pyrrolidin-1-yl)-methanone)(Langmead et al., 2004) and [^3H]EMPA (n-ethyl-2[96-methoxy-pyridin-3-yl)-(toluene-2-sulfonyl)-amino]-N-pyridin-3-ylmethyl acetamide), respectively (Langmead et al., 2004, British Journal of Pharmacology 141:340-346; Malherbe et al., 2004, British Journal of Pharmacology 156:1326-41).
Human Embryonic Kidney 293 cells (HEK293) stably expressing rat orexin 1 receptor (Genebank accession number NM_001525) or Chinese ovary cells (CHO) stably expressing human orexin 1 receptor (Genebank accession number NM_001526) were grown to confluency in DMEM (Hyclone, cat #SH30022), 10% FBS, 1× Pen/Strep, 1× sodium pyruvate, 10 mM HEPES, 600 µg/mL G418 and DMEM/F12 (Gibco, Cat #11039), 10% FBS, 1× Pen/Strep, 600 µg/mL G418 media, respectively on 150 cm^2 tissue culture plates, washed with 5 mM EDTA in PBS (HyClone Dulbecco's Phoshpate Buffered Saline 1× with Calcium and Magnesium, Cat #SH30264.01, hereafter referred to simply as PBS) and scraped into 50 ml tubes. After centrifugation (2K×G, 5 min at 4° C.), the supernatant was aspirated and the pellets frozen and stored at −80° C. Cells were resuspended in PBS in the presence of 1 tablet of protease inhibitor cocktail (Roche, Cat. #11836145001) per 50 mL. Each cell pellet from a 15 cm plate was resuspended in 10 mL, stored on ice, and homogenized for 45 sec prior to addition to the reactions. Competition binding experiments in 96 well polypropylene plates were performed using [^3H]-(1-(5-(2-fluoro-phenyl)-2-methyl-thiazol-4-yl)-1-((S)-2-(5-phenyl-(1,3,4)oxadiazol-2-ylmethyl)-pyrrolidin-1-yl)-methanone) (Moraveck Corporation, specific activity=35.3 Ci/mmol), diluted to a 10 nM concentration in PBS (4 nM final). […] The final concentration of DMSO in the reactions is equal to or less than 0.1%. Total and nonspecific binding was determined in the absence and presence of 10 μM almorexant. The total volume of each reaction is 200 μL (20 μL of diluted compounds, 80 μL of [3H]-(1-(5-(2-fluoro-phenyl)-2-methyl-thiazol-4-yl)-1-((S)-2-(5-phenyl-(1,3,4)oxadiazol-2-ylmethyl)-pyrrolidin-1-yl)-methanone) diluted in PBS and 100 μL of the cell suspension). Reactions were run for 60 min at room temperature and terminated by filtration through GF/C filter plates (PerkinElmer, Cat. #6005174) presoaked in 0.3% polyethylenimine using the cell harvester (PerkinElmer Filtermate). The plates were washed 3 times by aspirating 30 ml PBS through the plates. Plates were dried in 55° C. oven for 60 min, scintillation fluid was added, and the radioactivity was counted on a Topcount (Packard).

human orexin 2 receptor = human orexin 2 receptor (Homo sapiens (Human), UniProt O43614); test: Human orexin 2 receptor radioligand binding ([3H]-EMPA); details: HEK293 stably expressing human orexin 2 receptor; [3H]-EMPA; apparent Ki; read-out: hOX2 Ki
Chain of human orexin 2 receptor (O43614 whole entry): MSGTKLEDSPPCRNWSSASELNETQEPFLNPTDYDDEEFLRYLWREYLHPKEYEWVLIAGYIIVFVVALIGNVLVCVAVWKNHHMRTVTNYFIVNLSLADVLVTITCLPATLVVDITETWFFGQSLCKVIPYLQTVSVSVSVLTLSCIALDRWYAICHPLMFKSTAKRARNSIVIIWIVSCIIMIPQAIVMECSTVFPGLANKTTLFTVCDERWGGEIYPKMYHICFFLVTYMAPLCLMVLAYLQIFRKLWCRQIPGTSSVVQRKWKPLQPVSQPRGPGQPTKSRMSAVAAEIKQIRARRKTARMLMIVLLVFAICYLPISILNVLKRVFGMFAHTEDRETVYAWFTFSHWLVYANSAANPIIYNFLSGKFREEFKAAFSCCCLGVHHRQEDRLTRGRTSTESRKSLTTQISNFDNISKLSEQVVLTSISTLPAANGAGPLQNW
Description: After centrifugation (2K×G, 5 min at 4° C.), the supernatant was aspirated and the pellets frozen and stored at −80° C. […] Each cell pellet from a 15 cm plate was resuspended in 10 mL, stored on ice, and homogenized for 45 sec just prior to addition to the reactions. Competition binding experiments in 96 well polypropylene plates were performed using [^3H]-EMPA (Moraveck Corporation, specific activity=29.6 Ci/mmol), diluted to a 5 nM concentration in PBS (2 nM final concentration). […] The final concentration of DMSO in the reactions is equal to or less than 0.1%. Total and nonspecific binding was determined in the absence and presence of […]. The total volume of each reaction is 200 μL (20 μL of diluted compounds, 80 μL of [^3H]-EMPA diluted in PBS and 100 μL of the cell suspension).
The plates were washed 3 times by aspirating 30 ml PBS through the plates. Plates were dried in 55° C. oven for 60 min, scintillation fluid was added, and the radioactivity was counted on a Topcount (Packard).

Ki (rat orexin 1 receptor): 0.076 µM
Ki (human orexin 1 receptor): 0.071 µM
SMILES: Cc1ccc(N[C@@H]2CCCN(C(=O)c3ccccc3-n3nccn3)[C@H]2C)nc1 (racemic) [Example 37, (±)-trans-(2-(2H-1,2,3-triazol-2-yl)phenyl)(2-methyl-3-((5-methylpyridin-2-yl)amino)piperidin-1-yl)methanone]

Ki (human orexin 1 receptor): 0.078 µM
Ki (human orexin 2 receptor): 0.04 µM
SMILES: Cc1cc(C)nc(N[C@@H]2CCCN(C(=O)c3ccccc3-n3nccn3)[C@H]2C)n1 (racemic) [Example 4, (±)-trans-(2-(2H-1,2,3-triazol-2-yl)phenyl)(3-((4,6-dimethylpyrimidin-2-yl)amino)-2-methylpiperidin-1-yl)methanone]

Ki (human orexin 1 receptor): 0.029 µM
SMILES: C[C@H]1[C@H](Nc2ncc(C(F)(F)F)cn2)CCCN1C(=O)c1ccccc1-n1nccn1 (racemic) [Example 35, (±)-trans-(2-(2H-1,2,3-triazol-2-yl)phenyl)(2-methyl-3-((5-(trifluoromethyl)pyrimidin-2-yl)amino)piperidin-1-yl)methanone]

Ki (human orexin 1 receptor): 9 µM
SMILES: Cc1ccc(C(=O)N2CCC[C@@H](Nc3nccc(C(F)(F)F)n3)[C@@H]2C)c(-n2ccnn2)n1 (racemic) [Example 11, (±)-trans-(6-methyl-2-(1H-1,2,3-triazol-1-yl)pyridin-3-yl)(2-methyl-3-((4-(trifluoromethyl)pyrimidin-2-yl)amino)piperidin-1-yl)methanone]

Ki (human orexin 1 receptor): 0.315 µM
Ki (human orexin 2 receptor): 0.144 µM
SMILES: C[C@H]1[C@H](Nc2nccc(C(F)(F)F)n2)CCCN1C(=O)c1c(F)cccc1-n1nccn1 (racemic) [Example 10, (±)-trans-(2-fluoro-6-(2H-1,2,3-triazol-2-yl)phenyl)(2-methyl-3-((4-(trifluoromethyl)pyrimidin-2-yl)amino)piperidin-1-yl)methanone]

Ki (human orexin 1 receptor): 0.462 µM
Ki (human orexin 2 receptor): 0.587 µM
SMILES: Cc1ccc(-n2nccn2)c(C(=O)N2CCC[C@@H](Nc3cc(C)nc(C(F)(F)F)n3)[C@@H]2C)c1 (racemic) [Example 8, (±)-trans-(5-methyl-2-(2H-1,2,3-triazol-2-yl)phenyl)(2-methyl-3-((6-methyl-2-(trifluoromethyl)pyrimidin-4-yl)amino)piperidin-1-yl)methanone]

Ki (human orexin 1 receptor): 0.56 µM
Ki (human orexin 2 receptor): 0.116 µM
SMILES: Cc1cc(C)nc(N[C@@H]2CCCN(C(=O)c3cc(F)ccc3-n3nccn3)[C@H]2C)n1 (racemic) [Example 5, (±)-trans-(3-((4,6-dimethylpyrimidin-2-yl)amino)-2-methylpiperidin-1-yl)(5-fluoro-2-(2H-1,2,3-triazol-2-yl)phenyl)methanone]

Ki (human orexin 1 receptor): 1.03 µM
Ki (human orexin 2 receptor): 0.29 µM
SMILES: Cc1cc(C)nc(N[C@@H]2CCCN(C(=O)c3ccc(F)cc3-n3nccn3)[C@H]2C)n1 (racemic) [Example 1, (±)-trans-(3-((4,6-dimethylpyrimidin-2-yl)amino)-2-methylpiperidin-1-yl)(4-fluoro-2-(2H-1,2,3-triazol-2-yl)phenyl)methanone]

Ki (human orexin 1 receptor): 1.06 µM
Ki (human orexin 2 receptor): 0.26 µM
SMILES: Cc1cc(C)nc(N[C@@H]2CCCN(C(=O)c3c(F)cccc3-n3nccn3)[C@H]2C)n1 (racemic) [Example 3, (±)-trans-(3-((4,6-dimethylpyrimidin-2-yl)amino)-2-methylpiperidin-1-yl)(2-fluoro-6-(2H-1,2,3-triazol-2-yl)phenyl)methanone]

Ki (human orexin 1 receptor): 6.71 µM
Ki (human orexin 2 receptor): 2.05 µM
SMILES: Cc1cc(N[C@@H]2CCCN(C(=O)c3cc(F)ccc3-c3ncccn3)[C@H]2C)nc(C(F)(F)F)n1 (racemic) [Example 9, (±)-trans-(5-fluoro-2-(pyrimidin-2-yl)phenyl)(2-methyl-3-((6-methyl-2-(trifluoromethyl)pyrimidin-4-yl)amino)piperidin-1-yl)methanone]

More lines, now with the values behind:

SMILES: Cc1cc(C)nc(N[C@@H]2CCCN(C(=O)c3c(F)cccc3-c3ncccn3)[C@H]2C)n1 (racemic) [Example 2, (±)-trans-(3-((4,6-dimethylpyrimidin-2-yl)amino)-2-methylpiperidin-1-yl)(2-fluoro-6-(pyrimidin-2-yl)phenyl)methanone]
Ki (human orexin 1 receptor): 0.4 µM
Ki (human orexin 2 receptor): 0.217 µM

SMILES: Cc1ccc(-c2ncccn2)c(C(=O)N2CCC[C@@H](Nc3ccc(C(F)(F)F)cn3)[C@@H]2C)n1 (racemic) [Example 23, (±)-trans-(2-methyl-3-((5-(trifluoromethyl)pyridin-2-yl)amino)piperidin-1-yl)(6-methyl-3-(pyrimidin-2-yl)pyridin-2-yl)methanone hydrochloride]
Ki (human orexin 1 receptor): 0.023 µM
Ki (human orexin 2 receptor): 0.208 µM

SMILES: COc1c(F)cccc1C(=O)N1CCC[C@@H](Nc2cnc3ccccc3n2)[C@@H]1C (racemic) [Example 50, (±)-trans-(3-fluoro-2-methoxyphenyl)(2-methyl-3-(quinoxalin-2-ylamino)piperidin-1-yl)methanone]
Ki (rat orexin 1 receptor): 0.396 µM
Ki (human orexin 2 receptor): 0.353 µM

SMILES: C[C@H]1[C@H](Nc2ncc(Cl)cn2)CCCN1C(=O)c1ccccc1-n1nccn1 (racemic) [Example 30, (±)-trans-(2-(2H-1,2,3-triazol-2-yl)phenyl)(3-((5-chloropyrimidin-2-yl)amino)-2-methylpiperidin-1-yl)methanone]
Ki (rat orexin 1 receptor): 0.055 µM
Ki (human orexin 1 receptor): 0.054 µM

SMILES: C[C@H]1[C@H](Nc2ccccn2)CCCN1C(=O)c1ccccc1-n1nccn1 (racemic) [Example 36, (±)-trans-(2-(2H-1,2,3-triazol-2-yl)phenyl)(2-methyl-3-(pyridin-2-ylamino)piperidin-1-yl)methanone]
Ki (rat orexin 1 receptor): 0.69 µM
Ki (human orexin 2 receptor): 1.5 µM

SMILES: COc1c(F)cccc1C(=O)N1CCC[C@@H](Nc2ccc(C(F)(F)F)cn2)[C@@H]1C (racemic) [Example 28, (±)-trans-(3-fluoro-2-methoxyphenyl)(2-methyl-3-((5-(trifluoromethyl)pyridin-2-yl)amino)piperidin-1-yl)methanone]
Ki (rat orexin 1 receptor): 0.496 µM
Ki (human orexin 2 receptor): 3.9 µM

SMILES: C[C@H]1[C@H](Nc2ncc(F)cn2)CCCN1C(=O)c1ccccc1-n1nccn1 (racemic) [Example 40, (±)-trans-(2-(2H-1,2,3-triazol-2-yl)phenyl)(3-((5-fluoropyrimidin-2-yl)amino)-2-methylpiperidin-1-yl)methanone]
Ki (rat orexin 1 receptor): 0.87 µM
Ki (human orexin 2 receptor): 0.822 µM
